{"source": "patent US20060029546A1", "about": "“Materials and methods for identifying anti-schizophrenic agents” (deCODE Genetics, Inc., priority 2004, published 2006)", "key": {"Fyn [1]": {"test_system": "Fyn", "assay": "Fyn phosphorylation in HEK293 cells stably expressing ErbB4 and Fyn-V5 (Western blot)", "format": "cell-based", "protocol": "(§1) To determine whether NRG1-induced activation of ErbB4 leads to Fyn phosphorylation, NRG1 exposure of HEK293 cells stably expressing ErbB4 and Fyn-V5 were activated with 7.2 nM NRG1 (R&D Systems; Minneapolis, Minn.) for 10 minutes and lysed using RIPA buffer. […] There was no change in Fyn Tyr531 phosphorylation. […] Fyn is activated either by dephophorylation of Tyr531 with loss of the SH2 domain interaction, or through displacement of the SH2 domain by a second tyrosine phosphorylated binding partner allowing auto-phosphorylation on the Fyn activation loop residue Tyr420. Alternatively, Fyn can be phosphorylated on Tyr420 and activated directly by a second kinase. Thus, the NRG1-stimulated increase in Fyn Tyr420 phosphorylation may be through stimulation of Fyn auto-phosphorylation, through phosphorylation of Fyn by ErbB4, or through phosphorylation of Fyn by an ErbB4 activated tyrosine kinase other than Fyn.\nThese alternatives were distinguished by applying PP2 (25 nM; Calbiochem, San Diego, Calif.) a relatively selective Src-family kinase inhibitor, to inhibit Fyn while ErbB4 signaling was stimulated with NRG1. […] Fyn was phosphorylated at a low level on Tyr420 under basal conditions. […] After NRG1 stimulation, an increase in Fyn Tyr420 phosphorylation was seen, even under conditions in which PP2 was used to inhibit p59 Fyn autophosphorylation. […]"}, "ErbB4": {"test_system": "ErbB4", "assay": "ErbB4 tyrosine phosphorylation in HEK293 cells (Western blot)", "format": "cell-based", "conditions": "for NRG1-induced ErbB4 tyrosine phosphorylation: cells expressing ErbB4 and Fyn, inhibitor 25 nM", "protocol": "as §1\nThus, NRG1-induced ErbB4 phosphorylation under conditions in which Fyn and related Src-family kinases were inhibited by PP2 (selective Src-family kinase inhibitor described above). […] This may result in the creation of additional SH2 domain docking sites, thus leading to further activation of Fyn as part of a positive feedback mechanism involving NRG1, ErbB4 and Src-family kinases."}, "Fyn [2]": {"test_system": "Fyn", "conditions": "cited from earlier work"}, "[3]": {"test_system": "NMDA receptor subunit NR2B", "assay": "NR2B Tyr1472 phosphorylation in mouse hippocampal lysates (Western blot)", "format": "in vivo", "protocol": "To further characterize components of the NRG1/ErbB4 signaling pathway a-ErbB4 co-immunoprecipitates from mouse brain hippocampus were analyzed. […] Hippocampus tissue was isolated by manual dissection and homogenized in DOC buffer (20 μM ZnCl2, 50 mM Tris pH 9.0, 1% DOC) (1 ml/50 mg of tissue) containing protease and phosphatase inhibitors as above. 25U Benzonase Nuclease per 1 ml of lysate were added to each sample during a 60 minute incubation at 4° C. For SDS-PAGE and Western blot, sample protein content was determined using a BCA Protein Assay Reagent Kit (Pierce, Rockford, Ill.), adjusted to a final concentration of 2 μg/μl total protein in 1×SDS-PAGE sample buffer, and then 20-25 μg of protein was loaded per gel lane. For immunoprecipitation, samples were adjusted to a final concentration of 2 μg/μl total protein in DOC buffer. […]\nIt was hypothesized that NRG1^+/− and ErbB4^+/− mutant mice might show altered regulation of NMDA receptor subunit NR2B Tyr1472 phosphorylation related to their abnormal behavioral phenotype. Hippocampal lysates were analyzed as described in Example 1. It was determined that Tyr1472 of NR2B was hypo-phosphorylated in hippocampal lysates from 9 month old NRG1^+/− or ErbB4^+/− mutant mice as compared to age and sex matched C57B1/6 control mice (FIG. 3). […]"}, "NRG1+/− mutant mice": {"test_system": "NRG1+/− mutant mice", "assay": "Open field test", "format": "in vivo, mouse", "conditions": "single exposure", "protocol": "NRG1 hypomorphic mutant mice (NRG1^+/−) are heterozygotic mice that have a mutant NRG1 allele in which the NRG1 exon encoding the transmembrane domain is disrupted in the heterozygote. These mice develop normally and breed well. […] Treatment of the NRG1^+/−mice with a clozapine (1 mg/kg), an atypical antipsychotic drug commonly used to treat schizophrenia, for 25 minutes prior to testing reversed the behavioral abnormality. […] In addition, it is known that the NRG1^+/− had 16% fewer functional NMDA receptors overall as compared to litter-mate controls as determined by MK-801 (NMDA antagonist) binding studies on forebrain homogenates (Steffanson et al., Am. J. Hum. Genet. 72: 83-7, 2003). Therefore, these mice are relevant as an in vivo model for schizophrenia.\nBehavioral abnormality of NRG1^+/− mutant mice observed in the open field test is reversible with clozapine at a dose of 1 mg/kg i.p. The activity level of wild-type litter mate controls is not affected by that dose of clozapine. Thus, clozapine is not simply sedating at 1 mg/kg i.p., but has a selective effect on the behavioral abnormality of NRG1^+/− mutant mice. Reversal of the behavioral abnormality occurred rapidly within 25 minutes of a single exposure to clozapine."}}, "data": [{"smiles": "CC(C)(C)n1nc(-c2ccc(Cl)cc2)c2c(N)ncnc21", "note": "[PP2]", "values": [{"measurement": "basal Fyn Tyr420 phosphorylation", "setting": "Fyn [1]; basal conditions, 24 hour preincubation, 25 nM", "result": "reduced"}, {"measurement": "NRG1 induced tyrosine phosphorylation", "setting": "ErbB4; HEK293 cells expressing only ErbB4", "result": "no effect"}, {"measurement": "ErbB4 basal phosphorylation", "setting": "ErbB4; absence of NRG1", "result": "no effect"}, {"measurement": "NRG1-induced ErbB4 tyrosine phosphorylation", "setting": "ErbB4", "result": "greatly reduced"}, {"measurement": "IC50", "setting": "Fyn [2]; read-out: Fyn inhibition IC50", "result": "[…]"}]}, {"smiles": "Nc1ncnc2c1cnn2-c1ccccc1", "note": "[PP3]", "values": [{"measurement": "Fyn phosphorylation", "setting": "Fyn [1]; control compound", "result": "no effect"}, {"measurement": "NRG1-induced ErbB4 tyrosine phosphorylation", "setting": "ErbB4", "result": "no effect"}, {"measurement": "effect on Fyn", "setting": "Fyn [2]; control kinase inhibitor", "result": "no effect on Fyn"}]}, {"smiles": "CN1CCN(C2=Nc3cc(Cl)ccc3Nc3ccccc32)CC1", "note": "[clozapine]", "values": [{"measurement": "increase of NR2B Tyr1472 phosphorylation", "setting": "[3]; NRG1+/− mutant mice, 1 mg/kg i.p., 25 minutes after injection, normalized against total NR2B", "result": "2.5-3 fold"}, {"measurement": "NR2B Tyr1472 phosphorylation", "setting": "[3]; wild-type mice, same dose", "result": "no effect"}, {"measurement": "time to reversal of the behavioral abnormality", "setting": "NRG1+/− mutant mice", "result": "≤ 25", "unit": "min"}]}]}
